Data on four compounds can be found in ChEMBL document CHEMBL1151992, “Arenamides A-C, cytotoxic NFkappaB inhibitors from the marine actinomycete Salinispora arenicola” (J Nat Prod, 2009).

In general, IC50 refers to the concentration that gives 50% inhibition.

One data set concerns Enterococcus faecium. As to the kind of experiment: Antimicrobial activity against vancomycin-resistant Enterococcus faecium. Format: functional, organism-based.
The subject of the next data set is Candida albicans. Put plainly: Antimicrobial activity against amphotericin-resistant Candida albicans. Format: functional, organism-based.
Another data set has as its system Staphylococcus aureus. Put plainly: Antimicrobial activity against methicillin-resistant Staphylococcus aureus. Format: functional, organism-based.
The subject of data set [1] is RAW264.7. As to the kind of experiment: Antiinflammatory activity in mouse RAW264.7 cells assessed as inhibition of LPS-stimulated nitric oxide production at 3 to 10 uM treated 30 mins prior to LPS challenge measured after 24 hrs by Griess reagent method. Format: functional. On the set-up: scale not given: the % may be the effect or the level left.
Data set [2] can be described thus: Inhibition of TNF-induced NF-kappaB activation transfected in HEK293 cells by luciferase reporter gene assay. Format: cell-based. (Reporter assays use an easily measured gene product as a stand-in for the process of interest.)
Data set [3] has as its system RAW264.7. Put plainly: Cytotoxicity against mouse RAW264.7 cells at 3 to 10 uM by sulforhodamine B assay. Format: cell-based. To be noted: raw264.7, 10 µM.
The test system of data set [4] is RAW264.7. Put plainly: Antiinflammatory activity in mouse RAW264.7 cells assessed as inhibition of LPS-stimulated nitric oxide production treated 30 mins prior to LPS challenge measured after 24 hrs by Griess reagent method. Format: functional, cell-based. (The Griess reaction detects nitrite, a stable product of nitric oxide.)
The test system of another data set is HCT-116. Put plainly: Cytotoxicity against human HCT116 cells. Format: functional, cell-based.
Data set [5] has as its system RAW264.7. As to the kind of experiment: Antiinflammatory activity in mouse RAW264.7 cells assessed as inhibition of LPS-stimulated PGE2 production at 3 to 10 uM treated 30 mins prior to LPS challenge measured after 24 hrs by ELISA. Format: functional. On the set-up: scale not given: the % may be the effect or the level left. For orientation: An ELISA detects its analyte on a solid surface through an enzyme-linked reagent.

Values after ≈ are worked out from the molar mass of the structure shown. Active and inactive are the calls of the source. The calls are words filed in the database; no cut-off is given here.

Take `CCCCCC[C@@H](C)[C@H](O)CC(=O)NCC(=O)N[C@H](C(=O)C[C@@H](CC(C)C)C(=O)N[C@@H](C)C(=O)N[C@@H](Cc1ccccc1)C(=O)OC)C(C)C`: the result in the data set with Enterococcus faecium, in the data set on Candida albicans and in the data set on Staphylococcus aureus was inactive.

`CCCCCC[C@H](C)[C@@H]1CC(=O)NCC(=O)N[C@@H](C(C)C)C(=O)N[C@@H](CC(C)C)C(=O)N[C@@H](C)C(=O)N[C@@H](CCSC)C(=O)O1`: the outcome in the data set on Enterococcus faecium, in the data set with Candida albicans and with Staphylococcus aureus was inactive.

Regarding `CCCCCC[C@H](C)[C@@H]1CC(=O)NCC(=O)N[C@@H](C(C)C)C(=O)N[C@@H](CC(C)C)C(=O)N[C@@H](C)C(=O)N[C@@H](Cc2ccccc2)C(=O)O1` [ARENAMIDE A], the Activity in the data set on RAW264.7 [1] was 35%; with RAW264.7 [3], “Non-toxic”; in the data set on RAW264.7 [4], “Dose-dependent effect”; in the data set on RAW264.7 [5] it was 50%. In addition, the outcome in the data set with Enterococcus faecium, with Candida albicans and in the data set on Staphylococcus aureus was inactive. The IC50 in data set [2] stood at 3.7 µM; in the data set on HCT-116, 13.2 mg/L (≈ 19.6 µM).

As for `CCCC[C@H](C)[C@@H]1CC(=O)NCC(=O)N[C@@H](C(C)C)C(=O)N[C@@H](CC(C)C)C(=O)N[C@@H](C)C(=O)N[C@@H](Cc2ccccc2)C(=O)O1` [ARENAMIDE B], the Activity was 35% with RAW264.7 [1], “Non-toxic” in the data set on RAW264.7 [3], “Dose-dependent effect” with RAW264.7 [4] and 50% with RAW264.7 [5]. In addition, the result in the data set with Enterococcus faecium, with Candida albicans and in the data set on Staphylococcus aureus was inactive. The results for the IC50 (in data set [2]; in the data set on HCT-116) were 1.7 µM and 19.2 mg/L (≈ 29.8 µM), respectively.
